Source: patent US11447505B1, “Pyrrolo[2,3-b]pyridine compounds and their use in the treatment of cancer” (priority 2017, dated 2022)

How the values were obtained:
MRCKβ = MRCKβ (Homo sapiens (Human), UniProt Q9Y5S2); assay: MRCKβ kinase assay (IMAP fluorescence polarization); format: biochemical; settings: 1 μM ATP; read-out: MRCK-B Average Ki
Source text: MRCKα, MRCKβ, ROCK1 and ROCK2 Kinase Assays

ROCK1 = ROCK1 (Homo sapiens (Human), UniProt Q13464); settings: read-out: ROCK1 Average Ki; 1 μM ATP
Sequence of ROCK1 (Q13464 2-1354 limits assumed): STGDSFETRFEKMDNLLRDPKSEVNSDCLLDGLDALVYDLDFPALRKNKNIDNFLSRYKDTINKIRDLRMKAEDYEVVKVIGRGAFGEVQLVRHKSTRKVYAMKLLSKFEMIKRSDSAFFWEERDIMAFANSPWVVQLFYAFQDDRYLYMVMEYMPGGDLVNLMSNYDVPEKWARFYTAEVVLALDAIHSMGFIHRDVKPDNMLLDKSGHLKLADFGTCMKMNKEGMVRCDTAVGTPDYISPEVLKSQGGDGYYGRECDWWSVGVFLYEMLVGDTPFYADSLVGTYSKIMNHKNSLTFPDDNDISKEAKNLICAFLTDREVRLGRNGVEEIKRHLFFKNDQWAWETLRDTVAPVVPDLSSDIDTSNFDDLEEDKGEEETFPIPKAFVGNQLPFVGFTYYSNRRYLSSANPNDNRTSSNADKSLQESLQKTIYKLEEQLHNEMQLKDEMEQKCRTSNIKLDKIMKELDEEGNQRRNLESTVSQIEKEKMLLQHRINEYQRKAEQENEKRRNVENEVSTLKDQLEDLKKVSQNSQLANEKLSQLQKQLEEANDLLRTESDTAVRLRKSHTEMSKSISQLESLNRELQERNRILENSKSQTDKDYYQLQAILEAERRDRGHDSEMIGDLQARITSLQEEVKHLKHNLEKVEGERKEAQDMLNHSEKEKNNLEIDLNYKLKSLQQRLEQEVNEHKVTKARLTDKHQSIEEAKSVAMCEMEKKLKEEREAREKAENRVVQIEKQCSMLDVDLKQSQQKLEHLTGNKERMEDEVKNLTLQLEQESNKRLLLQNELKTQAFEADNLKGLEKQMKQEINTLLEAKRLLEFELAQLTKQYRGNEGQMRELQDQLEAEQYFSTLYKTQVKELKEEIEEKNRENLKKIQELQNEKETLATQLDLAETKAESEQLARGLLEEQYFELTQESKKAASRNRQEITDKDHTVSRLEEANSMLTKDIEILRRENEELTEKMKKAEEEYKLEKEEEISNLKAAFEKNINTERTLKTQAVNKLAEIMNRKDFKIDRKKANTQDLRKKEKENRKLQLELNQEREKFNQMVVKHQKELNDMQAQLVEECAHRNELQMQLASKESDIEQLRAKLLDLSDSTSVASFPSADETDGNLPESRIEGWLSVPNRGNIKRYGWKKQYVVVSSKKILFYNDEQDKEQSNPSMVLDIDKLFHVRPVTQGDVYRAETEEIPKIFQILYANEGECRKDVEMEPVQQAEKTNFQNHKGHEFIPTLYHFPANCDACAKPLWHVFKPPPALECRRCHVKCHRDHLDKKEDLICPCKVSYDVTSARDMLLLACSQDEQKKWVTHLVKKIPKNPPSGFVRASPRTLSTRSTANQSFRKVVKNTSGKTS

ROCK2 = ROCK2 (Homo sapiens (Human), UniProt O75116); assay: ROCK2 kinase assay (IMAP fluorescence polarization); format: biochemical; settings: 1 μM ATP; read-out: ROCK2 Average Ki
Sequence of ROCK2 (O75116 whole entry): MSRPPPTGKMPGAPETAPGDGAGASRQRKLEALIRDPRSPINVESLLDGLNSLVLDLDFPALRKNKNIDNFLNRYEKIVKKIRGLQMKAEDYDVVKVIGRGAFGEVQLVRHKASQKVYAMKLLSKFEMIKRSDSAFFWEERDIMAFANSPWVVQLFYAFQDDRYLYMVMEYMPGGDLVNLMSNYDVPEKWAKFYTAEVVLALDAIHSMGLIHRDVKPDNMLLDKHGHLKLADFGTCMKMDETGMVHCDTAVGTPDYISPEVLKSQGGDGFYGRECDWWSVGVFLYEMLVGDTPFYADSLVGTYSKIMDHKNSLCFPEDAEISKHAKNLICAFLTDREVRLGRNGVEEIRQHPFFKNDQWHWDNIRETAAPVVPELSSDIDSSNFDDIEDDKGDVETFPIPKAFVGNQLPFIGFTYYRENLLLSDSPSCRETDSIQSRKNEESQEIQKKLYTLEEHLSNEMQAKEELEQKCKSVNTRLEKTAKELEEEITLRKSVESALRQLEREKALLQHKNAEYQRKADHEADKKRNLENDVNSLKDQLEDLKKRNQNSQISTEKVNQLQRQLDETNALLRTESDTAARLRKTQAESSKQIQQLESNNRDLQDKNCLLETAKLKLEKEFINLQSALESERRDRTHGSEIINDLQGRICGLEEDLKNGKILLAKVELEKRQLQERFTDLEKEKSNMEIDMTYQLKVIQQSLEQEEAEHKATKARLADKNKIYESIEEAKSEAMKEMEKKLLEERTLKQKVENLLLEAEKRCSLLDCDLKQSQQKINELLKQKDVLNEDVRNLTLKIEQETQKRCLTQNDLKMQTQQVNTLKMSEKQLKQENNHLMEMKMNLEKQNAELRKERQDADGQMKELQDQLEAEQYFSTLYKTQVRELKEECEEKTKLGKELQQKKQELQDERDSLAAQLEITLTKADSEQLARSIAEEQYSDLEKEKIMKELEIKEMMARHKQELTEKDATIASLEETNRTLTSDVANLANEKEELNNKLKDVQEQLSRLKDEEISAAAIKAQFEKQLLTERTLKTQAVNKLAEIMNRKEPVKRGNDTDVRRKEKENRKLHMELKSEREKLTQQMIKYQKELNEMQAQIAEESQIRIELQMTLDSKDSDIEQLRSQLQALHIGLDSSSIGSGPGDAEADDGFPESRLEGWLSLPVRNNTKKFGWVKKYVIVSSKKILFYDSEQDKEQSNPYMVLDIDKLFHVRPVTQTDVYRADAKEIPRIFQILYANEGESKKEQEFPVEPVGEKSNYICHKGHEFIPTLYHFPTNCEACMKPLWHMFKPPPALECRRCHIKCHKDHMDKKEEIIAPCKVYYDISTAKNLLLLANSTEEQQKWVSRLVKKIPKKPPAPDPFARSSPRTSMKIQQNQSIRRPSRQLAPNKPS
Method: MRCKα, MRCKβ, ROCK1 and ROCK2 assays were performed using an IMAP fluorescence polarization assay format (Molecular Devices Inc.). 8-12 nM of each kinase (Life Technologies) was incubated for 60 min at room temperature with 100 nM FAM-S6-ribosomal protein derived peptide (synthesized by Alta Biosciences, University of Birmingham UK) in the presence of 1 μM ATP and 0.5 mM MgCl2 in 20 mM Tris buffer (pH 7.4) containing 0.01% Tween-20 and 1 mM DTT (MRCKα and β); or 1 μM ATP, 10 mM MgCl2 in 20 mM Tris buffer (pH 7.5) containing 0.25 mM EGTA 0.01% Triton X-100 and 1 mM DTT (ROCK1 and ROCK2). Typically, dose response analyses were performed over concentration ranges from 0.005-100 μM. Reactions were stopped by adding 2 assay volumes of 0.25% (v/v) IMAP binding reagent in 1×IMAP binding buffer A (Molecular Devices). After 30 min incubation to allow binding reagent to bind phosphorylated peptide, fluorescence polarization was measured on a Tecan Saphire^2 plate reader at excitation (470 nm) and emission (530 nm) wavelengths.

4-[4-(1-piperidyl)-1H-pyrrolo[2,3-b]pyridin-3-yl]pyridin-2-amine [Example E9]
Ki (MRCKβ): 0.000887 µM | Ki (ROCK1): 0.0015 µM | Ki (ROCK2): 0.00125 µM

4-morpholino-1H-pyrrolo[2,3-b]pyridine-3-carbonitrile [Example E33]
Ki (MRCKβ): 0.0871 µM | Ki (ROCK1): 0.196 µM | Ki (ROCK2): 0.127 µM

CN[C@H]1CCCN(c2ccnc3[nH]cc(-c4cncnc4)c23)[C@H]1C (relative stereo) [Example E179, cis-N,2-dimethyl-1-(3-pyrimidin-5-yl-1H-pyrrolo[2,3-b]pyridin-4-yl)piperidin-3-amine]
Ki (MRCKβ): 0.128 µM | Ki (ROCK1): 1.29 µM | Ki (ROCK2): 1.09 µM

CN(C1CC1)[C@H]1CCCN(c2ccnc3[nH]cc(-c4cncnc4)c23)C1 (stereo in doubt) [Example E80]
Ki (MRCKβ): 0.0083 µM | Ki (ROCK1): 0.499 µM | Ki (ROCK2): 0.228 µM

Cc1cnc2[nH]cc(-c3cncnc3)c2c1N1CCCCC1 [Example E1, 5-methyl-4-(1-piperidyl)-3-pyrimidin-5-yl-1H-pyrrolo[2,3-b]pyridine]
Ki (MRCKβ): 0.0646 µM | Ki (ROCK1): 15 µM | Ki (ROCK2): 6.5 µM

Nc1cccc(-c2c[nH]c3nccc(N4CCCCC4)c23)n1 [Example E3, 6-[4-(1-piperidyl)-1H-pyrrolo[2,3-b]pyridin-3-yl]pyridin-2-amine]
Ki (MRCKβ): 0.0399 µM | Ki (ROCK1): 0.0286 µM | Ki (ROCK2): 0.0138 µM

c1cc(-c2c[nH]c3nccc(N4CCCCC4)c23)ncn1 [Example E4, 4-(1-piperidyl)-3-pyrimidin-4-yl-1H-pyrrolo[2,3-b]pyridine]
Ki (MRCKβ): 0.0155 µM | Ki (ROCK1): 0.0283 µM | Ki (ROCK2): 0.0197 µM

CNc1cc(-c2c[nH]c3nccc(N4CCCCC4)c23)ccn1 [Example E5, N-methyl-4-[4-(1-piperidyl)-1H-pyrrolo[2,3-b]pyridin-3-yl]pyridin-2-amine]
Ki (MRCKβ): 0.00302 µM | Ki (ROCK1): 0.0408 µM | Ki (ROCK2): 0.0225 µM

N#Cc1cc(-c2c[nH]c3nccc(N4CCCCC4)c23)cnc1N [Example E7, 2-amino-5-[4-(1-piperidyl)-1H-pyrrolo[2,3-b]pyridin-3-yl]pyridine-3-carbonitrile]
Ki (MRCKβ): 0.357 µM | Ki (ROCK1): 0.501 µM | Ki (ROCK2): 0.245 µM

N#Cc1cncc(-c2c[nH]c3nccc(N4CCCCC4)c23)c1 [Example E8, 5-[4-(1-piperidyl)-1H-pyrrolo[2,3-b]pyridin-3-yl]pyridine-3-carbonitrile]
Ki (MRCKβ): 0.541 µM | Ki (ROCK1): 10 µM | Ki (ROCK2): 3.27 µM

Nc1ccc(-c2c[nH]c3nccc(N4CCCCC4)c23)cn1 [Example E10, 5-[4-(1-piperidyl)-1H-pyrrolo[2,3-b]pyridin-3-yl]pyridin-2-amine]
Ki (MRCKβ): 0.0518 µM | Ki (ROCK1): 0.0749 µM | Ki (ROCK2): 0.0457 µM

Fc1cncc(-c2c[nH]c3nccc(N4CCCCC4)c23)c1 [Example E11, 3-(5-fluoro-3-pyridyl)-4-(1-piperidyl)-1H-pyrrolo[2,3-b]pyridine]
Ki (MRCKβ): 0.0423 µM | Ki (ROCK1): 0.755 µM | Ki (ROCK2): 0.374 µM

Clc1cncc(-c2c[nH]c3nccc(N4CCCCC4)c23)c1 [Example E12, 3-(5-chloro-3-pyridyl)-4-(1-piperidyl)-1H-pyrrolo[2,3-b]pyridine]
Ki (MRCKβ): 0.366 µM | Ki (ROCK1): 2.15 µM | Ki (ROCK2): 0.575 µM

CNC(=O)c1cncc(-c2c[nH]c3nccc(N4CCCCC4)c23)c1 [Example E13, N-methyl-5-[4-(1-piperidyl)-1H-pyrrolo[2,3-b]pyridin-3-yl]pyridine-3-carboxamide]
Ki (MRCKβ): 0.378 µM | Ki (ROCK1): 10 µM | Ki (ROCK2): 1.75 µM

c1cc(-c2c[nH]c3nccc(N4CCCCC4)c23)cnn1 [Example E14, 4-(1-piperidyl)-3-pyridazin-4-yl-1H-pyrrolo[2,3-b]pyridine]
Ki (MRCKβ): 0.00941 µM | Ki (ROCK1): 0.009 µM | Ki (ROCK2): 0.0065 µM

c1cnnc(-c2c[nH]c3nccc(N4CCCCC4)c23)c1 [Example E15, 4-(1-piperidyl)-3-pyridazin-3-yl-1H-pyrrolo[2,3-b]pyridine]
Ki (MRCKβ): 0.0565 µM | Ki (ROCK1): 0.482 µM | Ki (ROCK2): 0.362 µM

c1cnc(-c2c[nH]c3nccc(N4CCCCC4)c23)cn1 [Example E16, 4-(1-piperidyl)-3-pyrazin-2-yl-1H-pyrrolo[2,3-b]pyridine]
Ki (MRCKβ): 0.0618 µM | Ki (ROCK1): 0.504 µM | Ki (ROCK2): 0.159 µM

c1ccc2c(-c3c[nH]c4nccc(N5CCCCC5)c34)n[nH]c2c1 [Example E17, 3-(1H-indazol-3-yl)-4-(1-piperidyl)-1H-pyrrolo[2,3-b]pyridine]
Ki (MRCKβ): 0.696 µM | Ki (ROCK1): 10 µM | Ki (ROCK2): 10 µM

Cn1nccc1-c1c[nH]c2nccc(N3CCCCC3)c12 [Example E18, 3-(2-methylpyrazol-3-yl)-4-(1-piperidyl)-1H-pyrrolo[2,3-b]pyridine]
Ki (MRCKβ): 0.818 µM | Ki (ROCK1): 10 µM | Ki (ROCK2): 2.48 µM

c1cc(N2CCCCC2)c2c(-c3ccc4[nH]ncc4c3)c[nH]c2n1 [Example E19, 3-(1H-indazol-5-yl)-4-(1-piperidyl)-1H-pyrrolo[2,3-b]pyridine]
Ki (MRCKβ): 0.213 µM | Ki (ROCK1): 0.144 µM | Ki (ROCK2): 0.115 µM

CCn1cc(-c2c[nH]c3nccc(N4CCCCC4)c23)cn1 [Example E21, 3-(1-ethylpyrazol-4-yl)-4-(1-piperidyl)-1H-pyrrolo[2,3-b]pyridine]
Ki (MRCKβ): 0.188 µM | Ki (ROCK1): 0.0749 µM | Ki (ROCK2): 0.0679 µM

Cn1ccc(-c2c[nH]c3nccc(N4CCCCC4)c23)n1 [Example E22, 3-(1-methylpyrazol-3-yl)-4-(1-piperidyl)-1H-pyrrolo[2,3-b]pyridine]
Ki (MRCKβ): 0.656 µM | Ki (ROCK1): 10 µM | Ki (ROCK2): 3.22 µM

c1ccc(-c2c[nH]c3nccc(N4CCCCC4)c23)nc1 [Example E23, 4-(1-piperidyl)-3-(2-pyridyl)-1H-pyrrolo[2,3-b]pyridine]
Ki (MRCKβ): 0.134 µM | Ki (ROCK1): 1.69 µM | Ki (ROCK2): 0.699 µM

Cn1cc(-c2c[nH]c3nccc(N4CCCCC4)c23)cn1 [Example E24, 3-(1-methylpyrazol-4-yl)-4-(1-piperidyl)-1H-pyrrolo[2,3-b]pyridine]
Ki (MRCKβ): 0.0376 µM | Ki (ROCK1): 0.0435 µM | Ki (ROCK2): 0.0208 µM

c1ccc(-c2c[nH]c3nccc(N4CCC4)c23)nc1 [Example E25, 4-(azetidin-1-yl)-3-(2-pyridyl)-1H-pyrrolo[2,3-b]pyridine]
Ki (MRCKβ): 0.178 µM | Ki (ROCK1): 10 µM | Ki (ROCK2): 1.5 µM

c1cncc(-c2c[nH]c3nccc(N4CCC4)c23)c1 [Example E26, 4-(azetidin-1-yl)-3-(3-pyridyl)-1H-pyrrolo[2,3-b]pyridine]
Ki (MRCKβ): 0.0576 µM | Ki (ROCK1): 0.545 µM | Ki (ROCK2): 0.263 µM

c1cc(N2CCC2)c2c(-c3cn[nH]c3)c[nH]c2n1 [Example E27, 4-(azetidin-1-yl)-3-(1H-pyrazol-4-yl)-1H-pyrrolo[2,3-b]pyridine]
Ki (MRCKβ): 0.13 µM | Ki (ROCK1): 0.713 µM | Ki (ROCK2): 0.381 µM

c1cc(N2CCC2)c2c(-c3cc[nH]n3)c[nH]c2n1 [Example E28, 4-(azetidin-1-yl)-3-(1H-pyrazol-3-yl)-1H-pyrrolo[2,3-b]pyridine]
Ki (MRCKβ): 0.0294 µM | Ki (ROCK1): 0.0144 µM | Ki (ROCK2): 0.0098 µM

c1cc(-c2c[nH]c3nccc(O[C@@H]4CCCNC4)c23)ncn1 [Example E213, 3-pyrimidin-4-yl-4-[[(3R)-3-piperidyl]oxy]-1H-pyrrolo[2,3-b]pyridine]
Ki (MRCKβ): 0.000144 µM | Ki (ROCK1): 0.00384 µM

N-[(3S)-1-(3-pyridazin-4-yl-1H-pyrrolo[2,3-b]pyridin-4-yl)-3-piperidyl]acetamide [Example E205]
Ki (MRCKβ): 0.00443 µM | Ki (ROCK1): 0.113 µM
